Data taken from patent publication US20250129021A1, “SMALL MOLECULE PROTEIN SYNTHESIS MODULATORS” (Interdict Bio, Inc., priority 2023, published 2025).

Tests used:
Type in all cases: biochemical
Conditions in all cases: HeLa S3 lysate, sfGFP/mCherry ratio, 2 hrs at 30° C.
KRAS G12D = assay: In vitro transcription-translation (IVTT) assay, KRAS G12D reporter
Description: (§1) All reporter constructs have been cloned into the pT7CFE1-CHis plasmid (ThermoFisher #88860) using Gibson assembly procedures (NEB #E2611L). The parental pT7CFE1-CHis plasmid contains an EMCV IRES at the 5′UTR for translation initiation, a multiple-cloning site (MCS) for gene insertion, an optional C-terminal His-epitope tag, and polyA sequence in the 3′UTR to regulate mRNA stability. All reporters are designed to be inserted at the MCS to include a red fluorescent protein (mCherry), P2A self-cleaving peptide which releases the preceding mCherry protein product, and a fusion open reading frame containing a 3×FLAG epitope, a peptide sequence of interest (TEST), and green fluorescent protein (sfGFP).
(§2) Construct Plasmid Preparation: All plasmids are isolated from MACH1 cells (ThermoFisher) grown overnight in ampicillin-containing luria broth, and purified using ZymoPure Express Plasmid Midiprep Kit (Zymo Research). Constructs are sequenced verified and diluted to a working concentration of 110 ng/μL.
(§3) HeLa S3 Lysate Preparation: HeLa S3 cell pellets are acquired from Ipracell/Ipratech (Belgium) and shipped as 4 mL frozen cell pellets on dry ice for storage at −80° C. until use. The procedure for lysate preparation is as follows. Prepare 1× Lysis Buffer, cold and stored on ice:
(§4) Each preparation takes 8 cell pellets (4 ml packed volume each, approximately 1.0×10^9 cells per pellet). Thaw cell pellets from −80° C. on ice for 90 mins. Lay pellets horizontally on top of the ice and rotate every 30 mins to ensure even thawing. Once thawed, add 4 mL of cold lysis buffer to each pellet, and using a serological pipet, gently pipet up and down to break up clumps. Incubate resuspended cells in ice for an additional 30 mins (plunged into ice). During 30 min incubation, rinse and RNase-zap (Ambion) glass dounces (use loose pestle “A”), gently dry and place on ice until needed. Prepare RNase-free Eppendorf tubes for spinning and for batch storage. Add batch labels to 1.5-1.7 mL RNase-free microcentrifuge tubes (labeling scheme below). Each batch will have an extra 1.5-1.7 mL RNase-free microcentrifuge tube for 40 μL of lysate, label the top of this tube (labeling scheme below). After 30 min incubation, transfer all 8 mL of cell pellet to dounce. Cell lysis is complete after douncing 100 times. Aliquot cell lysis into 1.5-1.7 mL temporary-microcentrifuge tubes. Place tubes in centrifuge with “fins” out, and spin at 1,200×g for 5 mins. After the first spin use a 1 mL pipet to resuspend each tube and repeat spin. This acts as an additional lysis step, is more vigorous and increases lysate yield. During second spin get liquid N2 and a fresh conical tube on ice. After spin is complete, transfer supernatant (lysate) from microcentrifuge tubes into the 50 mL conical tube and keep on ice. Repeat steps 10-14 for all other cell pellets until completed. Once all cell lysate has been transferred to the 50 mL conical tube pipet to mix so the solution is homogenous. Transfer 1 mL of lysate into batch-labeled microcentrifuge tubes and flash freeze in liquid nitrogen. Be sure to pipet up and down to mix throughout transfer step. Place all tubes in the […] for long-term storage.
(§5) In vitro transcription-translation assay setup: Each assay includes a master mix containing lysate and shared components, a 96-well plate containing compound titrations for testing, a 96-well DNA plate with reporter constructs to be tested, 96-well skirted PCR plates, and 96-well flat-bottom, black, fluorescent assay plates. […]

MYC = assay: In vitro transcription-translation (IVTT) assay, MYC reporter
Procedure, shortened: (§6)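 Reporter: mCherry, P2A, then 3×FLAG-target peptide-sfGFP fusion, IRES-initiated; HeLa S3 lysate IVTT; cpd dilutions 30 μM−0.1 μM half-log in 100% DMSO (dilution-plate conc); DNA added last; 2 h, 30° C; PBS quench.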

ALK = assay: In vitro transcription-translation (IVTT) assay, ALK reporter
Description: as §1, §2, §3, §4, §5

CCND1 = assay: In vitro transcription-translation (IVTT) assay, CCND1 reporter
Procedure, shortened: as §6

MCL-1 = assay: In vitro transcription-translation (IVTT) assay, MCL-1 reporter
Procedure, shortened: as §6

For `COc1ccc(C[C@H]2NC[C@H](O)[C@H]2OC(=O)NCC[C@@H]2NC(=O)C3(CCNCC3)NC2=O)cc1` [V187327, (2R,3S,4S)-4-hydroxy-2-[(4-methoxyphenyl)methyl]pyrrolidin-3-yl N-{2-[(3S)-2,5-dioxo-1,4,9-triazaspiro[5.5]undecan-3-yl]ethyl}carbamate; trifluoroacetic acid], which IC50 (KRAS G12D) is on record?
Its IC50 is over 30 µM.

What about the IC50 (MYC) of the same molecule?
Its IC50 is over 30 µM.

What about the IC50 (ALK) of the same molecule?
The IC50 was under 10 µM.

Which results are given for `COc1ccc(C[C@H]2NC[C@H](O)[C@H]2OC(=O)NCCNc2c(N)c(=O)c2=O)cc1` [V187518, (2R,3S,4S)-4-hydroxy-2-[(4-methoxyphenyl)methyl]pyrrolidin-3-yl N-{2-[(2-amino-3,4-dioxocyclobut-1-en-1-yl)amino]ethyl}carbamate; trifluoroacetic acid]?
IC50 (KRAS G12D): > 30 µM; IC50 (MYC): > 30 µM; IC50 (ALK): 10 to 20 µM

Which results are given for `COc1ccc(C[C@H]2NC[C@H](O)[C@H]2OC(=O)NC2CC(F)(F)C2)cc1` [V187191, (2R,3S,4S)-4-hydroxy-2-[(4-methoxyphenyl)methyl]pyrrolidin-3-yl N-(3,3-difluorocyclobutyl)carbamate; trifluoroacetic acid]?
IC50 (KRAS G12D): > 30 µM; IC50 (MYC): 20 to 30 µM; IC50 (ALK): < 10 µM

With `COCCN(CCNC(=O)O[C@@H]1[C@H](O)CN[C@H]1Cc1ccc(OC)cc1)CCOC` [V187538, (2S,3S,4R)-4-hydroxy-2-[(4-methoxyphenyl)methyl]pyrrolidin-3-yl N-{2-[bis(2-methoxyethyl)amino]ethyl}carbamate; trifluoroacetic acid] as the molecule, how does the IC50 (KRAS G12D) read?
Its IC50 is over 30 µM.

And the IC50 (MYC)?
The IC50 was 10 to 20 µM.

And the IC50 (ALK)?
The IC50 was under 10 µM.

How did the IC50 (KRAS G12D) turn out when `COc1ccc(C[C@H]2NC[C@H](O)[C@H]2OC(=O)NNC(=O)Cc2ccccc2)cc1` [V187741, N′-({[(2R,3S,4S)-4-hydroxy-2-[(4-methoxyphenyl)methyl]pyrrolidin-3-yl]oxy}carbonyl)-2-phenylacetohydrazide; trifluoroacetic acid] was run?
The IC50 was 10 to 20 µM.

And the IC50 (MYC)?
The IC50 was under 10 µM.

And the IC50 (ALK)?
Its IC50 is under 10 µM.

With `COc1ccc(C[C@H]2NC[C@H](O)[C@H]2OC(=O)NCCN2CC3(CNC3)C2)cc1` [V187623, (2R,3S,4S)-4-hydroxy-2-[(4-methoxyphenyl)methyl]pyrrolidin-3-yl N-(2-{2,6-diazaspiro [3.3]heptan-2-yl}ethyl)carbamate] as the molecule, how does the IC50 (KRAS G12D) read?
The IC50 was over 30 µM.

What about the IC50 (MYC) of the same molecule?
The IC50 was over 30 µM.

And the IC50 (ALK)?
Its IC50 is 20 to 30 µM.

For `COc1ccc(CC2NCC(O)C2OC(=O)NC2CC(N)C2)cc1` [V187682, (2R,3S,4S)-4-hydroxy-2-[(4-methoxyphenyl)methyl]pyrrolidin-3-yl N-[(1r,3r)-3-aminocyclobutyl]carbamate], which IC50 (KRAS G12D) is on record?
Its IC50 is over 30 µM.

What about the IC50 (MYC) of the same molecule?
Its IC50 is over 30 µM.

And the IC50 (ALK)?
Its IC50 is 10 to 20 µM.

With `COc1ccc(C[C@H]2NC[C@H](O)[C@H]2OC(=O)Nc2nnc(C)s2)cc1` [V187553, (2R,3S,4S)-4-hydroxy-2-[(4-methoxyphenyl)methyl]pyrrolidin-3-yl N-(5-methyl-1,3,4-thiadiazol-2-yl)carbamate; trifluoroacetic acid] as the molecule, how does the IC50 (KRAS G12D) read?
Its IC50 is over 30 µM.

What about the IC50 (MYC) of the same molecule?
The IC50 was over 30 µM.

And the IC50 (ALK)?
The IC50 was over 30 µM.

Which IC50 (KRAS G12D) does the source give for `COc1ccc(CC2NCC(O)[C@H]2OC(=O)NCCN(Cc2ccccn2)Cc2ccccn2)cc1` (stereo in doubt) [V187537, (2S,3S,4R)-4-hydroxy-2-[(4-methoxyphenyl)methyl]pyrrolidin-3-yl N-{2-[bis(pyridin-2-ylmethyl)amino]ethyl}carbamate; trifluoroacetic acid] here?
The IC50 was 20 to 30 µM.

And the IC50 (MYC)?
Its IC50 is under 10 µM.

And the IC50 (ALK)?
Its IC50 is under 10 µM.

Which IC50 (KRAS G12D) does the source give for `COc1ccc(C[C@H]2NC[C@H](O)[C@H]2OC(=O)NCCN2CC(O)(C#N)C2)cc1` [V187567, (2R,3S,4S)-4-hydroxy-2-[(4-methoxyphenyl)methyl]pyrrolidin-3-yl N-[2-(3-cyano-3-hydroxyazetidin-1-yl)ethyl]carbamate] here?
The IC50 was 20 to 30 µM.

What about the IC50 (CCND1) of the same molecule?
The IC50 was 20 to 30 µM.

And the IC50 (MYC)?
The IC50 was 10 to 20 µM.

Which IC50 (KRAS G12D) does the source give for `CCNc1c(NCCNC(=O)O[C@@H]2[C@@H](O)CN[C@@H]2Cc2ccc(OC)cc2)c(=O)c1=O` [V187589, (2R,3S,4S)-4-hydroxy-2-[(4-methoxyphenyl)methyl]pyrrolidin-3-yl N-(2-{[2-(ethylamino)-3,4-dioxocyclobut-1-en-1-yl]amino}ethyl)carbamate; trifluoroacetic acid] here?
Its IC50 is over 30 µM.

What about the IC50 (MYC) of the same molecule?
The IC50 was over 30 µM.

What about the IC50 (ALK) of the same molecule?
The IC50 was over 30 µM.

How did the IC50 (KRAS G12D) turn out when `COc1ccc(C[C@H]2NC[C@H](O)[C@H]2OC(=O)NCCN2C(=O)CNC2=O)cc1` [V187659, (2R,3S,4S)-4-hydroxy-2-[(4-methoxyphenyl)methyl]pyrrolidin-3-yl N-[2-(2,5-dioxoimidazolidin-1-yl)ethyl]carbamate; trifluoroacetic acid] was run?
The IC50 was over 30 µM.

And the IC50 (MYC)?
Its IC50 is 20 to 30 µM.

What about the IC50 (ALK) of the same molecule?
Its IC50 is under 10 µM.

For `COc1ccc(C[C@H]2NC[C@H](O)[C@H]2OC(=O)Nc2nnc(CO)s2)cc1` [V187598, (2R,3S,4S)-4-hydroxy-2-[(4-methoxyphenyl)methyl]pyrrolidin-3-yl N-[5-(hydroxymethyl)-1,3,4-thiadiazol-2-yl]carbamate; trifluoroacetic acid], which IC50 (KRAS G12D) is on record?
Its IC50 is under 10 µM.

And the IC50 (ALK)?
The IC50 was under 10 µM.

With `CCC(=O)NNC(=O)O[C@@H]1[C@@H](O)CN[C@@H]1Cc1ccc(OC)cc1` [V187739, 1-{[(2R,3S,4S)-4-hydroxy-2-[(4-methoxyphenyl)methyl]pyrrolidin-3-yl]oxy}-N′-propanoylformohydrazide; trifluoroacetic acid] as the molecule, how does the IC50 (KRAS G12D) read?
The IC50 was 10 to 20 µM.

What about the IC50 (ALK) of the same molecule?
Its IC50 is under 10 µM.

How did the IC50 (KRAS G12D) turn out when `COc1ccc(C[C@H]2NC[C@H](O)[C@H]2OC(=O)NCCN2CCC3(C2)CC(F)(F)C3)cc1` [V187643, (2R,3S,4S)-4-hydroxy-2-[(4-methoxyphenyl)methyl]pyrrolidin-3-yl N-(2-{2,2-difluoro-6-azaspiro[3.4]octan-6-yl}ethyl)carbamate] was run?
Its IC50 is over 30 µM.

What about the IC50 (ALK) of the same molecule?
Its IC50 is 20 to 30 µM.

How did the IC50 (KRAS G12D) turn out when `COc1ccc(C[C@H]2NC[C@H](O)[C@H]2OC(=O)NCCO)cc1` [V187584, (2R,3S,4S)-4-hydroxy-2-[(4-methoxyphenyl)methyl]pyrrolidin-3-yl N-(2-hydroxyethyl)carbamate] was run?
The IC50 was 10 to 20 µM.

And the IC50 (ALK)?
The IC50 was under 10 µM.

Which IC50 (KRAS G12D) does the source give for `COc1ccc(C[C@H]2NC[C@H](O)[C@H]2OC(=O)NNCc2ccno2)cc1` [V187668, 1-{[(2R,3S,4S)-4-hydroxy-2-[(4-methoxyphenyl)methyl]pyrrolidin-3-yl]oxy}-N′-(1,2-oxazol-5-ylmethyl)formohydrazide; trifluoroacetic acid] here?
Its IC50 is 10 to 20 µM.

What about the IC50 (ALK) of the same molecule?
Its IC50 is under 10 µM.

Which results are given for `COc1ccc(C[C@H]2NC[C@H](O)[C@H]2OC(=O)Nc2ccccc2)cc1` [V187666, (2R,3S,4S)-4-hydroxy-2-[(4-methoxyphenyl)methyl]pyrrolidin-3-yl N-phenylcarbamate]?
IC50 (KRAS G12D): > 30 µM; IC50 (ALK): > 30 µM

Which IC50 (KRAS G12D) does the source give for `COc1ccc(C[C@H]2NC[C@H](O)[C@H]2OC(=O)NCCNCCOC(C)C)cc1` [V187640, (2R,3S,4S)-4-hydroxy-2-[(4-methoxyphenyl)methyl]pyrrolidin-3-yl N-{2-[(2-isopropoxyethyl)amino]ethyl}carbamate; trifluoroacetic acid] here?
Its IC50 is over 30 µM.

And the IC50 (MYC)?
The IC50 was over 30 µM.

`COc1ccc(C[C@H]2NC[C@H](O)[C@H]2OC(=O)NC[C@@H]2CCCO2)cc1` [V187521, (2R,3S,4S)-4-hydroxy-2-[(4-methoxyphenyl)methyl]pyrrolidin-3-yl N-[(2S)-oxolan-2-ylmethyl]carbamate; trifluoroacetic acid] was tested. Which IC50 (MCL-1) did it give?
The IC50 was under 10 µM.

And the IC50 (KRAS G12D)?
The IC50 was 10 to 20 µM.

And the IC50 (CCND1)?
The IC50 was under 10 µM.

And the IC50 (MYC)?
Its IC50 is under 10 µM.

With `COc1ccc(C[C@H]2NC[C@H](O)[C@H]2OC(=O)NCCOCCN(C)C)cc1` [V187383, (2R,3S,4S)-4-hydroxy-2-[(4-methoxyphenyl)methyl]pyrrolidin-3-yl N-{2-[2-(dimethylamino)ethoxy]ethyl}carbamate] as the molecule, how does the IC50 (KRAS G12D) read?
Its IC50 is over 30 µM.

And the IC50 (ALK)?
The IC50 was under 10 µM.
